Test results as given in patent publication US9102678B2, “Compounds and methods for inhibiting mitotic progression” (Millennium Pharmaceuticals, Inc., priority 2004, dated 2015).

The compounds below were run against T1, recombinant murine Aurora A enzyme (Mus musculus, UniProt P97477) (assay: Aurora A DELFIA Kinase Assay). Details: mouse Aurora A, 250 μM ATP; threshold less than or equal to 100 nM; read-out: IC50.
T1 construct: hexahistidine (His6) (N); made in house; host or cells: insect cells, baculovirus (Bac-to-Bac, Invitrogen)
Type: biochemical

T1 sequence (P97477 whole entry): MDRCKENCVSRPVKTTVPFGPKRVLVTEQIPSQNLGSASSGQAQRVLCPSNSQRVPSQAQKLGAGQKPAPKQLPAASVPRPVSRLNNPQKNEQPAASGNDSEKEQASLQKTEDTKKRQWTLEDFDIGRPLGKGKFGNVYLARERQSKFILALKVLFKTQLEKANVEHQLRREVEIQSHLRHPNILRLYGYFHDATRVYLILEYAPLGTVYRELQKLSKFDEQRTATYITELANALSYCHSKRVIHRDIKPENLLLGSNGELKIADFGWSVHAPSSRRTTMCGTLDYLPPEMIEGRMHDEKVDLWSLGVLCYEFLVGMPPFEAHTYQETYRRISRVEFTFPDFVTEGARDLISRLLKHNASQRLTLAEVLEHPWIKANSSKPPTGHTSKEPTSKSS

IC50, ≤ 100 nM:
C[C@H]1CN(C(=O)c2ccc(Nc3ncc4c(n3)-c3ccc(Cl)cc3C(c3c(F)cccc3F)=NC4)cc2)CCN1 [Compound I-191, {4-[9-Chloro-7-(2,6-difluoro-phenyl)-5H-benzo[c]pyrimido[4,5-e]azepin-2-ylamino]-phenyl}-(3(S)-methyl-piperazin-1-yl)-methanone]
NC1CN(C(=O)c2ccc(Nc3ncc4c(n3)-c3ccc(Cl)cc3C(c3ccccc3F)=NC4)cc2)C1 [Compound I-192, (3-Amino-azetidin-1-yl)-{4-[9-chloro-7-(2-fluoro-phenyl)-5H-benzo[c]pyrimido[4,5-e]azepin-2-ylamino]-phenyl}-methanone]
CN(C)CC1CN(C(=O)c2ccc(Nc3ncc4c(n3)-c3ccc(Cl)cc3C(c3ccccc3F)=NC4)cc2)C1 [Compound I-193, {4-[9-Chloro-7-(2-fluoro-phenyl)-5H-benzo[c]pyrimido[4,5-e]azepin-2-ylamino]-phenyl}-(3-dimethylaminomethyl-azetidin-1-yl)-methanone]
C[C@@H]1CN(C(=O)c2ccc(Nc3ncc4c(n3)-c3ccc(Cl)cc3C(c3c(F)cccc3F)=NC4)cc2)CCN1 [Compound I-194, {4-[9-Chloro-7-(2,6-difluoro-phenyl)-5H-benzo[c]pyrimido[4,5-e]azepin-2-ylamino]-phenyl}-(3(R)-methyl-piperazin-1-yl)-methanone]
O=C(c1ccc(Nc2ncc3c(n2)-c2ccc(Cl)cc2C(c2c(F)cccc2F)=NC3)cc1)N1CCNCC1 [Compound I-195, {4-[9-Chloro-7-(2,6-difluoro-phenyl)-5H-benzo[c]pyrimido[4,5-e]azepin-2-ylamino]-phenyl}-piperazin-1-yl-methanone]
NC1CCN(C(=O)c2ccc(Nc3ncc4c(n3)-c3ccc(Cl)cc3C(c3c(F)cccc3F)=NC4)cc2)C1 (stereo not shown) [Compound I-196, (3-Amino-pyrrolidin-1-yl)-{4-[9-chloro-7-(2,6-difluoro-phenyl)-5H-benzo[c]pyrimido[4,5-e]azepin-2-ylamino]-phenyl}-methanone]
CNC1CCN(C(=O)c2ccc(Nc3ncc4c(n3)-c3ccc(Cl)cc3C(c3c(F)cccc3F)=NC4)cc2)C1 (stereo not shown) [Compound I-197, {4-[9-Chloro-7-(2,6-difluoro-phenyl)-5H-benzo[c]pyrimido[4,5-e]azepin-2-ylamino]-phenyl}-(3-methylamino-pyrrolidin-1-yl)-methanone]
CNCCCN(C)C(=O)c1ccc(Nc2ncc3c(n2)-c2ccc(Cl)cc2C(c2c(F)cccc2F)=NC3)cc1 [Compound I-198, 4-[9-Chloro-7-(2,6-difluoro-phenyl)-5H-benzo[c]pyrimido[4,5-e]azepin-2-ylamino]-N-methyl-N-(3-methylamino-propyl)-benzamide]
CNC1CCN(C(=O)c2ccc(Nc3ncc4c(n3)-c3ccc(Cl)cc3C(c3c(F)cccc3OC)=NC4)cc2)C1 (stereo not shown) [Compound I-199, {4-[9-Chloro-7-(2-fluoro-6-methoxy-phenyl)-5H-benzo[c]pyrimido[4,5-e]azepin-2-ylamino]-phenyl}-(3-methylamino-pyrrolidin-1-yl)-methanone]
CN(C)C1CN(C(=O)c2cccc(Nc3ncc4c(n3)-c3ccc(Cl)cc3C(c3c(F)cccc3F)=NC4)c2)C1 [Compound I-204, 9-chloro-7-(2,6-difluorophenyl)-N-(3-{[3-(dimethylamino)azetidin-1-yl]carbonyl}phenyl)-5H-pyrimido[5,4-d][2]benzazepin-2-amine]
CN(C)C1CCN(C(=O)c2cccc(Nc3ncc4c(n3)-c3ccc(Cl)cc3C(c3c(F)cccc3F)=NC4)c2)CC1 [Compound I-205, 9-chloro-7-(2,6-difluorophenyl)-N-(3-{[4-(dimethylamino)piperidin-1-yl]carbonyl}phenyl)-5H-pyrimido[5,4-d][2]benzazepin-2-amine]
CN(C)C1CCN(C(=O)c2cccc(Nc3ncc4c(n3)-c3ccc(Cl)cc3C(c3c(F)cccc3F)=NC4)c2)C1 (stereo not shown) [Compound I-206, 9-chloro-7-(2,6-difluorophenyl)-N-(3-{[3-(dimethylamino)pyrrolidin-1-yl]carbonyl}phenyl)-5H-pyrimido[5,4-d][2]benzazepin-2-amine]
CCN(CC)CCCN1CCN(C(=O)c2ccc(Nc3ncc4c(n3)-c3ccc(Cl)cc3C(c3ccccc3F)=NC4)cc2)CC1 [Compound I-208, 9-chloro-N-[4-({4-[3-(diethylamino)propyl]piperazin-1-yl}carbonyl)phenyl]-7-(2-fluorophenyl)-5H-pyrimido[5,4-d][2]benzazepin-2-amine]
CCN(CC)CCN1CCN(C(=O)c2ccc(Nc3ncc4c(n3)-c3ccc(Cl)cc3C(c3ccccc3F)=NC4)cc2)CC1 [Compound I-209, 9-chloro-N-[4-({4-[2-(diethylamino)ethyl]piperazin-1-yl}carbonyl)phenyl]-7-(2-fluorophenyl)-5H-pyrimido[5,4-d][2]benzazepin-2-amine]
CN(C)CCCN1CCN(C(=O)c2ccc(Nc3ncc4c(n3)-c3ccc(Cl)cc3C(c3ccccc3F)=NC4)cc2)CC1 [Compound I-210, 9-chloro-N-[4-({4-[3-(dimethylamino)propyl]piperazin-1-yl}carbonyl)phenyl]-7-(2-fluorophenyl)-5H-pyrimido[5,4-d][2]benzazepin-2-amine]
CN1CCCC(CN2CCN(C(=O)c3ccc(Nc4ncc5c(n4)-c4ccc(Cl)cc4C(c4ccccc4F)=NC5)cc3)CC2)C1 (stereo not shown) [Compound I-211, 9-chloro-7-(2-fluorophenyl)-N-[4-({4-[(1-methylpiperidin-3-yl)methyl]piperazin-1-yl}carbonyl)phenyl]-5H-pyrimido[5,4-d][2]benzazepin-2-amine]
O=C(c1ccc(Nc2ncc3c(n2)-c2ccc(Cl)cc2C(c2ccccc2F)=NC3)cc1Cl)N1CCN(CCN2CCCC2)CC1 [Compound I-213, 9-chloro-N-(3-chloro-4-{[4-(2-pyrrolidin-1-ylethyl)piperazin-1-yl]carbonyl}phenyl)-7-(2-fluorophenyl)-5H-pyrimido[5,4-d][2]benzazepin-2-amine]
CC1CN(C(=O)c2ccc(Nc3ncc4c(n3)-c3ccc(Cl)cc3C(c3ccccc3F)=NC4)cc2Cl)CCN1 (stereo not shown) [Compound I-214, 9-chloro-N-{3-chloro-4-[(3-methylpiperazin-1-yl)carbonyl]phenyl}-7-(2-fluorophenyl)-5H-pyrimido[5,4-d][2]benzazepin-2-amine]
CN(C)C1CCN(C(=O)c2ccc(Nc3ncc4c(n3)-c3ccc(Cl)cc3C(c3c(F)cccc3F)=NC4)cc2Cl)C1 (stereo not shown) [Compound I-215, 9-chloro-N-(3-chloro-4-{[3-(dimethylamino)pyrrolidin-1-yl]carbonyl}phenyl)-7-(2,6-difluorophenyl)-5H-pyrimido[5,4-d][2]benzazepin-2-amine]
CC1CN(C(=O)c2ccc(Nc3ncc4c(n3)-c3ccc(Cl)cc3C(c3c(F)cccc3F)=NC4)cc2Cl)CCN1 (stereo not shown) [Compound I-216, 9-chloro-N-{3-chloro-4-[(3-methylpiperazin-1-yl)carbonyl]phenyl}-7-(2,6-difluorophenyl)-5H-pyrimido[5,4-d][2]benzazepin-2-amine]
Nc1ccc(Nc2ncc3c(n2)-c2ccc(Cl)cc2C(c2c(F)cccc2F)=NC3)cc1 [Compound I-217, N-[9-chloro-7-(2,6-difluorophenyl)-5H-pyrimido[5,4-d][2]benzazepin-2-yl]benzene-1,4-diamine]
O=C(O)C1CNCCN1C(=O)c1ccc(Nc2ncc3c(n2)-c2ccc(Cl)cc2C(c2c(F)cccc2F)=NC3)cc1 (stereo not shown) [Compound I-219, 1-(4-{[9-chloro-7-(2,6-difluorophenyl)-5H-pyrimido[5,4-d][2]benzazepin-2-yl]amino}benzoyl)piperazine-2-carboxylic acid]
CNC1CCN(C(=O)c2ccc(Nc3ncc4c(n3)-c3ccc(Cl)cc3C(c3c(F)cccc3F)=NC4)cc2)CC1 [Compound I-220, 9-chloro-7-(2,6-difluorophenyl)-N-(4-{[4-(methylamino)piperidin-1-yl]carbonyl}phenyl)-5H-pyrimido[5,4-d][2]benzazepin-2-amine]
NC1CCCN(C(=O)c2ccc(Nc3ncc4c(n3)-c3ccc(Cl)cc3C(c3c(F)cccc3F)=NC4)cc2)C1 (stereo not shown) [Compound I-221]
CC1CN(C(=O)c2cccc(Nc3ncc4c(n3)-c3ccc(Cl)cc3C(c3c(F)cccc3F)=NC4)c2)CC(C)N1 (stereo not shown) [Compound I-222, 9-chloro-7-(2,6-difluorophenyl)-N-{3-[(3,5-dimethylpiperazin-1-yl)carbonyl]phenyl}-5H-pyrimido[5,4-d][2]benzazepin-2-amine]
CN(C)C1CCN(C(=N)NC(=O)c2ccc(Nc3ncc4c(n3)-c3ccc(Cl)cc3C(c3c(F)cccc3F)=NC4)cc2)CC1 [Compound I-223, 4-{[9-chloro-7-(2,6-difluorophenyl)-5H-pyrimido[5,4-d][2]benzazepin-2-yl]amino}-N-[[4-(dimethylamino)piperidin-1-yl](imino)methyl]benzamide]
N=C(NC(=O)c1ccc(Nc2ncc3c(n2)-c2ccc(Cl)cc2C(c2c(F)cccc2F)=NC3)cc1)N1CCNCC1 [Compound I-224, 4-{[9-chloro-7-(2,6-difluorophenyl)-5H-pyrimido[5,4-d][2]benzazepin-2-yl]amino}-N-[imino(piperazin-1-yl)methyl]benzamide]
COc1cccc(F)c1C1=NCc2cnc(Nc3ccc(C(=O)N(C)CCCN(C)C)cc3)nc2-c2ccc(Cl)cc21 [Compound I-225, 4-{[9-chloro-7-(2-fluoro-6-methoxyphenyl)-5H-pyrimido[5,4-d][2]benzazepin-2-yl]amino}-N-[3-(dimethylamino)propyl]-N-methylbenzamide]
